pIC50: −log10 of the molar value.
What was measured:
[1] = Mouse Liver Microsome stability assay; format: in vitro ADME; conditions: mouse liver microsomes
[2] = target: 2YF/3wt + NRG Ba/F3 cells (HER2YF/HER3wt) (Homo sapiens, UniProt P04626, Y1005F/Y1023F/Y1112F/Y1127F/Y1139F/Y1196F/Y1221F/Y1222F/Y1248F, cells depend on it); assay: Ba/F3 proliferation assay, 2YF/3wt + NRG; format: cell-based; conditions: Tables 7 and 8; read-out: Ba/F3 line IC50, HER2YF/HER3 + NRG
Text: Ba/F3 cells are normally dependent on IL-3 signaling for their proliferation and survival, but can be made dependent on introduced oncogenic signals. We sequentially selected transduced Ba/F3 cells for populations stably expressing HER3 and then HER2. To ensure that all of the proliferative signal could be attributed to HER2/HER3 heterodimers, rather than HER2 homodimers, the 9 C-terminal tyrosines in HER2 were mutated to phenylalanine (HER2YF). We then withdrew IL-3 and supplemented the media with NRG to select for NRG dependent HER2YF/HER3wt cells (2YF/3wt).
For the 2YF/3wt cells, the parental cells were first transduced with HER3 according to the protocol above and were then spun down at 500×g for 5 min and re-suspended in media supplemented with 10 ng/mL IL-3 and 3 μg/mL puromycin (Invitrogen). Cells were maintained in these conditions for seven days, passaging as required. After seven days the cells were spun down, washed with fresh media, and then used for a subsequent round of transduction according to the protocol above with HER2YF virus. […] The cells were maintained in these conditions for seven days, passaging as required. After seven days the cells were spun down, washed with fresh media, and then suspended in media supplemented with 10 ng/mL of NRG. Cells were maintained in these conditions for seven days to select for a NRG dependent population of 2YF/3wt Ba/F3 cells that were then maintained as described above. The same protocol was used for the 2YF-L755S/3wt, 2YF-YVMA/3wt, and 2YF-VC/3wt cell lines using the indicated constructs.
Proliferation Assays. […] The following day media was changed to fresh media that contained either DMSO or the indicated concentration of drug plus NRG (50 ng/mL final concentration) as indicated. […] For all normalized assays, proliferation was normalized to the DMSO control condition. All graphs were plotted in GraphPad Prism 6 and fit with a non-linear regression of the log(inhibitor) vs response with a variable slope where shown. All graphs are averages (+/−standard deviation) of biological triplicates each performed in technical triplicate unless otherwise noted. If only one biological replicate was performed standard deviations were derived from the technical replicates.

Axl+ Ba/F3 cells = target: T1, Axl+ Ba/F3 cells (Homo sapiens, UniProt P30530); assay: Ba/F3 proliferation assay, Axl+; format: cell-based; conditions: Tables 7 and 8; read-out: Ba/F3 line IC50, Axl+
T1 sequence (P30530 1-894): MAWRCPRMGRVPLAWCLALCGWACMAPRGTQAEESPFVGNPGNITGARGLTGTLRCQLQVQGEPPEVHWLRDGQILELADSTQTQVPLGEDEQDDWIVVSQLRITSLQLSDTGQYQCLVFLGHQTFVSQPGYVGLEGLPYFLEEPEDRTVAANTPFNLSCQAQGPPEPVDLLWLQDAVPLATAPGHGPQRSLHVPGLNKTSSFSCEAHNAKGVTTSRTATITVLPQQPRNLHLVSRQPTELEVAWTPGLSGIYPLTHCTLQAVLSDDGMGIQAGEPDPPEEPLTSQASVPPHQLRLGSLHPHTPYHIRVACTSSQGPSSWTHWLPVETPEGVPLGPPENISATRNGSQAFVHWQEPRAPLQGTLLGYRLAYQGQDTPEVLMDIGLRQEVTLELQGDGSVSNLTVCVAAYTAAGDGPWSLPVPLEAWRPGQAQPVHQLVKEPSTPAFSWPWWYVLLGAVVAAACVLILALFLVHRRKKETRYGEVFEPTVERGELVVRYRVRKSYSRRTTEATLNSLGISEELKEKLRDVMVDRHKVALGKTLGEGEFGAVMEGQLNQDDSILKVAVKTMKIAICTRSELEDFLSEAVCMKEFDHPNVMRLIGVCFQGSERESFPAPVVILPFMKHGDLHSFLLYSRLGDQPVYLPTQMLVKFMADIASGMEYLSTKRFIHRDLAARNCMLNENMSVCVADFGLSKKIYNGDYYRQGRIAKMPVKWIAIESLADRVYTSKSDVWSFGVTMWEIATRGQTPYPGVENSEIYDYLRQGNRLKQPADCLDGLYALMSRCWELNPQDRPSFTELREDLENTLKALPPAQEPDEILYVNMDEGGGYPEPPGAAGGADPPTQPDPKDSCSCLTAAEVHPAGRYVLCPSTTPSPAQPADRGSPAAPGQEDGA
Experimental: (§1) To validate the screen and test the effectiveness of counter-screening with either the same 2YF/3wt Ba/F3 cell line or the parental Ba/F3's in the presence of IL-3 to remove cytotoxic primary hits, we first tested a panel of kinase inhibitors with established mechanisms of action.
For Axl+ cells, the transduced cells were spun down at 500×g for 5 min and resuspended in media supplemented with 10 ng/mL IL-3 and 3 μg/mL puromycin (Invitrogen). Cells were maintained in these conditions for 7 days, passaging as required. After 7 days the cells were spun down, washed with fresh media, and then suspended in IL-3 free media. The cells were maintained in these conditions for 2 weeks to select for an IL-3 independent population of Axl+ driven cells.
(§2) Proliferation Assays. For adherent cell lines, cells were plated onto opaque white 96 well plates (Greiner cat #655083) and allowed to adhere overnight. The following day media was changed to fresh media that contained either DMSO or the indicated concentration of drug plus NRG (50 ng/mL final concentration) as indicated. Plates were incubated at 37° C. for 72 h and proliferation was read out using Cell Titer Glo (Promega) according to the manufacturer's protocol. For Ba/F3 cell proliferation, cells, drug dilution, and any necessary growth factors (10 ng/mL IL-3 or 6.25 ng/mL NRG) were combined in a well of a 96 well plate. Plates were incubated at 37° C. for 48 h and proliferation was read out using Cell Titer Glo according to the manufacturer's protocol. For all normalized assays, proliferation was normalized to the DMSO control condition. All graphs were plotted in GraphPad Prism 6 and fit with a non-linear regression of the log(inhibitor) vs response with a variable slope where shown. All graphs are averages (+/−standard deviation) of biological triplicates each performed in technical triplicate unless otherwise noted. If only one biological replicate was performed standard deviations were derived from the technical replicates.

[3] = system: parental Ba/F3 cells + IL-3; assay: Ba/F3 proliferation assay, Parental + IL-3; format: cell-based; conditions: Mus musculus, BaF3; Tables 7 and 8; read-out: Ba/F3 line IC50, Parental + IL-3
Experimental: as §1, §2

HER2+/2VE Ba/F3 line = assay: Ba/F3 proliferation assay, HER2+/2VE; format: cell-based; conditions: Mus musculus, BaF3; Tables 7 and 8
Experimental: as §2

Chain of 2YF/3wt + NRG Ba/F3 cells (HER2YF/HER3wt) (P04626 whole entry Y1005F/Y1023F/Y1112F/Y1127F/Y1139F/Y1196F/Y1221F/Y1222F/Y1248F): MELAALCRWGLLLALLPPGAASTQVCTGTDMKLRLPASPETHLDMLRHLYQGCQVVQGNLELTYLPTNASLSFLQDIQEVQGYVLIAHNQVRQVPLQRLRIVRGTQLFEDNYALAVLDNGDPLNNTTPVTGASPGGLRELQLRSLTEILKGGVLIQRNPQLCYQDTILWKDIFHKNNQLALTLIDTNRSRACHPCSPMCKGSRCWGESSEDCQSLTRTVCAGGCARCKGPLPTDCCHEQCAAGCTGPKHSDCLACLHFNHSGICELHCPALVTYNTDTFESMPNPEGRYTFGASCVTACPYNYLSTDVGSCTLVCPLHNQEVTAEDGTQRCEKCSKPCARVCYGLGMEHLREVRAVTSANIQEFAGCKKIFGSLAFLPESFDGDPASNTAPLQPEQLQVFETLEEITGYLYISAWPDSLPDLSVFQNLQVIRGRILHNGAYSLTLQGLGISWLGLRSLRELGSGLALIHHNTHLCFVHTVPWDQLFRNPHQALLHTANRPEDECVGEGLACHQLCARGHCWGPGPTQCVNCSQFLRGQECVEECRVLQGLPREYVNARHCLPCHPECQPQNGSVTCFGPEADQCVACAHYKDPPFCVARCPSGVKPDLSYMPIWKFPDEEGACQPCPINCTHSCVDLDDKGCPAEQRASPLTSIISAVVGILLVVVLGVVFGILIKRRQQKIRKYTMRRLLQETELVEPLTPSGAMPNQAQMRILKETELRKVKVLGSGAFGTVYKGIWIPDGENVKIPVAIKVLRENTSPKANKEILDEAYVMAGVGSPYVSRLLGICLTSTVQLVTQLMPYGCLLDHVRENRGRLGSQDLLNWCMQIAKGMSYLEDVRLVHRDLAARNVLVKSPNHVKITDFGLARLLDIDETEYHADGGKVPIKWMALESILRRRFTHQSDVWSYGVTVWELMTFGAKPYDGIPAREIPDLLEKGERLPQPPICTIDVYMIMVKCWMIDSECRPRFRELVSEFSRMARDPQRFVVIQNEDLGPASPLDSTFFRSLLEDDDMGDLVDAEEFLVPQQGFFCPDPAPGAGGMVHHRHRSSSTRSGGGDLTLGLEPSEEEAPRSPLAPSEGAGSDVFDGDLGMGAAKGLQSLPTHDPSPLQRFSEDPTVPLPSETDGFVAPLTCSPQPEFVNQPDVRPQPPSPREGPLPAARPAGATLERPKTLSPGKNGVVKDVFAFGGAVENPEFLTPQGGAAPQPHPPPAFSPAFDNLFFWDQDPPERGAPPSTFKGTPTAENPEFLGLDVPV

Row | SMILES | WuXi Microsomal stability (Mouse Extraction Ratio) [1] | GI50 [2] [µM] | GI50 (Axl+ Ba/F3 cells) [µM] | pIC50 (HER2+/2VE Ba/F3 line) | pIC50 [3]
1 | COc1cc(C)c(-c2ccccc2)cc1Nc1ncnc2[nH]nc(-c3cc[nH]n3)c12 [compound 8134] | 0.7 |  |  |  | 
2 | COc1ccc(-c2ccccc2F)cc1Nc1ncnc2[nH]nc(-c3cc[nH]n3)c12 [8168A] | 0.8 |  |  |  | 
3 | COc1ccc(-c2cnccn2)cc1Nc1ncnc2[nH]nc(-c3cc[nH]n3)c12 [compound 8184] | 0.9 |  |  |  | 
4 | COc1ncc(-c2ccccc2)cc1Nc1ncnc2[nH]nc(-c3cc[nH]n3)c12 [compound 8177] | 0.8 |  |  |  | 
5 | FC(F)Oc1ccc(-c2ccccc2)cc1Nc1ncnc2[nH]nc(-c3cc[nH]n3)c12 [compound 8179] | 0.6 |  |  |  | 
6 | COc1ccc(-c2ccccc2)cc1Nc1ncnc2[nH]nc(-c3ccc(C(F)(F)F)cc3)c12 [Cmpd 191E] |  | > 10 | > 10 | < 5.00 | < 5.00
7 | CC(=O)c1cccc(-c2n[nH]c3ncnc(Nc4ccc(Oc5ccccc5)cc4)c23)c1 [Cmpd 5-001B] |  | > 10 | > 10 | < 5.00 | < 5.00
8 | CN(C)c1ccc(-c2ccccc2)cc1Nc1ncnc2[nH]nc(-c3cc[nH]n3)c12 [compound 8164] | 0.9 |  |  |  | 
9 | COc1ccc(-c2ncccn2)cc1Nc1ncnc2[nH]nc(-c3cc[nH]n3)c12 [compound 8185] | 0.8 |  |  |  | 
10 | COc1ccc(N2CCOCC2)cc1Nc1ncnc2[nH]nc(-c3ccsc3)c12 [Cmpd 41A] |  | > 3.33 | > 10 | < 5.00 | < 5.00
11 | COc1ccc(-c2ccccc2)cc1Nc1ncnc2[nH]nc(-c3ccc4ccccc4c3)c12 [Cmpd 190C] |  | 0.862 | 0.643 | 5.74 | 5.82
12 | COc1ccc(C(=O)N(C)C)cc1Nc1ncnc2[nH]nc(-c3ccsc3)c12 [Cmpd 42] |  | > 10 | > 10 | < 5.00 | < 5.00
13 | COc1ccc(C(C)(C)C)cc1Nc1ncnc2[nH]nc(-c3cccc(C(C)=O)c3)c12 [Cmpd 190D] |  | > 10 | > 10 | < 5.00 | < 5.00

Continued, in another order:

Row | WuXi Microsomal stability (Mouse Extraction Ratio) [1] | GI50 [2] [µM] | GI50 (Axl+ Ba/F3 cells) [µM] | pIC50 (HER2+/2VE Ba/F3 line) | SMILES | pIC50 [3]
14 |  | 0.376 | 2.15 | 5.77 | COc1ccc(-c2ccccc2)cc1Nc1ncnc2[nH]nc(-c3ccsc3)c12 [Cmpd 191F] | 5.60
15 |  | 0.0868 | 0.171 | 6.64 | COc1cccc(-c2n[nH]c3ncnc(Nc4cc(-c5ccccc5)ccc4OC)c23)c1 [Cmpd 190A] | 6.35
16 |  | 0.739 | 0.535 | 5.99 | CNC(=O)c1cc(-c2n[nH]c3ncnc(Nc4cc(-c5ccccc5)ccc4OC)c23)cs1 [Cmpd 45F] | < 5.00
17 |  | > 10 | > 10 | < 5.00 | COc1ccc(-c2ccc(C)cc2)cc1Nc1ncnc2[nH]nc(-c3ccsc3)c12 [Cmpd 39C] | < 5.00
18 |  | > 3.33 | 1.76 | < 5.48 | COc1ccc(-c2cccc(C)c2)cc1Nc1ncnc2[nH]nc(-c3ccsc3)c12 [Cmpd 39B] | < 5.48
19 |  | 0.361 | 0.362 | 6.21 | COc1ccc(-c2ccccc2)cc1Nc1ncnc2[nH]nc(-c3ccccc3F)c12 [Cmpd 189A] | 5.95
20 | 0.7 |  |  |  | COc1ccc(-c2ccccc2)cc1Nc1ncnc2[nH]nc(-c3n[nH]cc3C)c12 [compound 8186] | 
21 |  | > 3.33 | > 3.33 | < 5.48 | COc1ccc(-c2ccccc2)cc1N(C)c1ncnc2[nH]nc(-c3ccsc3)c12 [Cmpd 43] | < 5.48
